Four substances from patent publication US11952433B2, “Heterochiral peptide-complex and composition for measuring nuclear magnetic resonance spectroscopy residual dipolar coupling containing self-assembled intermediates of heterochiral peptide-complex” (INDUSTRY-ACADEMIC COOPERATION FOUNDATION, YONSEI UNIVERSITY, priority 2020, dated 2024) can be followed below.

Data set [1] can be described thus: Time course of self-assembly in solution by CD and AFM. It counts as physicochemical. The settings on record: in water; for self-assembly kinetics (in words): CD and AFM with time. On the procedure:
The CD spectra of the peptide complexes in aqueous solution were acquired using a Chirascan™ CD spectrometer. All the peptide complexes were adjusted to 20 μM with DI water and then incubated at room temperature for 2 hours. The CD spectra were recorded using a 2-mm path-length cuvette from 250 nm to 190 nm at 25° C. Each spectrum was collected by averaging three scans and corrected for the distilled water background spectrum.
The peptide complex samples were diluted to 20 μM and 10 μL was dropped onto a freshly cleaved mica plate. After 1 minute of incubation, the mica plate was washed with 100 μL of doubly distilled water and then the residual solution was gently removed using filter paper. After completely drying at room temperature, AFM measurement was made. The AFM scans were conducted at noncontact mode (NCM) with a Park NX10 instrument (Park Systems, Korea). The scanning was performed at a scan rate of 0.3 Hz and a Z-gain of 1.
All the peptide samples were diluted to 1 mM and divided into 1-mL aliquots. The aliquots were heated at 95° C. for 1 hour and slowly annealed in a water bath overnight. After the annealing process, the samples were incubated at room temperature and the self-assembly process with time was analyzed by CD, AFM, WAXS, NMR, etc.

The nature of data set [2]: Wide-angle X-ray scattering (WAXS) of the colloidal crystal solution. The format is physicochemical. The settings on record: for WAXS d-spacing, intersheet distance / WAXS reflection d (second reflection) / WAXS reflection d, interstrand distance of β-sheets: 3.0 mg/mL, room temperature. Here is the method:
Wide-angle X-ray scattering analysis was performed using the 4C SAXS II beamline (BL) of the Pohang Accelerator Laboratory (PAL, Korea). In-vacuum undulator 20 of the Pohang Light Source II storage ring was used as a beam source, and a vertical toroidal focusing mirror was used to deliver an X-ray beam of 0.675 Å. 100 μL of the sample solution was mounted in a quartz microcapillary with a thickness of 10 μm and a length of 80 mm. The sample was irradiated for 5 seconds of exposure time at room temperature. The concentrations of the samples of Comparative Examples 1-2 and Example 1 (T-W6, T-w6 and T-(wW)3) were all 3.0 mg/mL. The X-ray scattering patterns were collected by using a charge-coupled detector (Mar USA, Inc.) positioned 20 cm apart from the sample (0.25 Å^−1<q<2.00 Å^−1).
The data were captured in six continuous frames of 0.1 minute each to minimize the damage from irradiation. Each 2D scattering pattern was averaged circularly from the beam focus and normalized to the intensity of the transmitted X-ray beam. The transmitted beam intensity was monitored with a scintillation counter. The scattering pattern of water was used as the experimental background.
However, the detailed molecular arrangement of the peptide in each crystal might be different. To address this question, wide-angle X-ray scattering (WAXS) analysis of the colloidal crystal solution was performed.

For “PEGylated (L)Trp-(D)Trp-(L)Trp-(D)Trp-(L)Trp-(D)Trp [Example 2]”, the “self-assembly kinetics (in words)” value in data set [1] was “same slow assembly kinetics”.
Turning to “(D)Trp-(L)Trp-(D)Trp-(L)Tre-(D)Trp-(L)Trp [Example 1]”, in data set [2], the “distance between the β strands” value is on record as 4.56-4.92 Å; the “WAXS d-spacing, intersheet distance” value is recorded as 17.0 Å; the “WAXS reflection d (second reflection)” value is 5.6 Å; the “WAXS reflection d, interstrand distance of β-sheets” value (from here on “WAXS reflection d … of β-sheets”) is reported as 4.7 Å. Further, the “self-assembly kinetics (in words)” value in data set [1] is given as “markedly slower self-assembly kinetics”. Further, the “time after which the increase in CD signals had almost ceased (self-assembly equilibrium)” value in data set [1] (room temperature after annealing) is listed as 2 weeks.
On to “PEGylated (D)Trp-(D)Trp-(D)Trp-(D)Trp-(D)Trp-(D)Trp [Comparative Example 2]”, for which, in data set [2], the “WAXS d-spacing, intersheet distance” value is reported as 17.5 Å; the “WAXS reflection d (second reflection)” value is given as 5.8 Å; the “WAXS reflection d … of β-sheets” value came to 4.7 Å.
Regarding “PEGylated (L)Trp-(L)Trp-(L)Trp-(L)Trp-(L)Trp-(L)Trp [Comparative Example 1]”, in data set [2], the “WAXS d-spacing, intersheet distance” value worked out at 17.5 Å; the “WAXS reflection d (second reflection)” value came to 5.8 Å; the “WAXS reflection d … of β-sheets” value worked out at 4.7 Å.
